Assay results reported in US20140349970A1 (ABBVIE INC., priority 2009, published 2014).
pIC50: −log10 of the molar value.

These compounds were tested against T1, Syk catalytic domain (aa 356-635 with a C-terminal His-tag) (Homo sapiens, UniProt P43405) (assay: In vitro Syk kinase activity measured by trFRET, Syk catalytic domain). Settings: not given.
T1 construct: His-tag (C); made in house
Type: biochemical
Procedure: In Vitro Syk Kinase Activity Measured by Time-Resolved Fluorescence Resonance Energy Transfer (trFRET)
0.14 nM purified Syk catalytic domain (aa 356-635 with a C-terminal His-tag purified in-house by immobilized metal ion affinity chromatography) was mixed with 0.2 μM peptide substrate (biotin-TYR1, Sequence: Biotin-(Ahx)-GAEEEIYAAFFA-COOH) at varying inhibitor concentrations in reaction buffer: 50 mM MOPSO pH 6.5, 10 mM MgCl2, 2 mM MnCl2, 2.5 mM DTT, 0.01% BSA, 0.1 mM Na3VO4 and 0.001 mM ATP. After about 60 min incubation at rt, the reaction was quenched by addition of EDTA (final concentration: 100 mM) and developed by addition of revelation reagents (final approximate concentrations: 30 mM HEPES pH 7.0, 0.06% BSA, 0.006% Tween-20, 0.24 M KF, 80 ng/mL PT66K (europium labeled anti-phosphotyrosine antibody cat #61T66KLB Cisbio, Bedford, Mass.) and 0.6 μg/mL SAXL (Phycolink streptavidin-allophycocyanin acceptor, cat #PJ255, Prozyme, San Leandro, Calif.). The developed reaction was incubated in the dark either at about 4° C. for about 14 h or for about 60 min at rt, then read via a time-resolved fluorescence detector (Rubystar, BMG) using a 337 nm laser for excitation and monitoring emission wavelengths at 665 nm. Within the linear range of the assay, the observed signal at 665 nm was directly related to phosphorylated product and can be used to calculate the IC50 values.
MOPSO buffer contains: 50 mM MOPSO pH 6.5, 10 mM MgCl2, 2 mM MnCl2, 2.5 mM DTT, 0.01% BSA, and 0.1 mM Na3VO4 HEPES buffer contains: 50 mM HEPES pH 7.1, 2.5 mM DTT, 10 mM MgCl2, 2 mM MnCl2, 0.01% BSA, and 0.1 mM Na3VO4 MOPS buffer contains: 20 mM MOPS pH 7.2, 10 mM MgCl2, 5 mM EGTA, 5 mM Beta-phosphoglycerol, 1 mM Na3VO4, 0.01% Triton-X-100 and 1 mM DTT
Biotin-TYR1-peptide sequence: Biotin-(Ahx)-GAEEEIYAAFFA-COOH Biotin-TYR2-peptide sequence: Biotin-(Ahx)-AEEEYFFLFA-amide KinEASE 51 peptides were purchased from Cisbio (cat #62ST0PEB, Bedford, Mass.)
PT66K was purchased from Cisbio (cat #61T66KLB, Bedford, Mass.) EuSTK was purchased from Cisbio (cat #62ST0PEB, Bedford, Mass.) SAXL was purchased from Prozyme (cat #PJ25S, San Leandro, Calif.) Human T-Blasts IL-2 pSTAT5 Cellular Assay

pIC50, 5.00 to 6.00:
COc1ccc(-c2nc(C)n3c2cnc2[nH]ccc23)c(OC)c1 [AC.1.1]
COc1ccc(-c2nc(C)n3c2cnc2[nH]ccc23)c(CO)c1 [AC.1.2]
Cc1nc(-c2ccc(S(=O)(=O)N3CCN(C)CC3)cc2)c2cnc3[nH]ccc3n12 [AC.1.12]
Cc1nc(C2=CCN(C(=O)OC(C)(C)C)CC2)c2cnc3[nH]ccc3n12 [AC.1.13]
COc1ccc(-c2nc(C)n3c2cnc2[nH]ccc23)c(F)c1 [AC.1.18]
COc1ccc(-c2nc(C)n3c2cnc2[nH]ccc23)c(Cl)c1 [AC.1.19]
Cc1nc(-c2cccnc2)c2cnc3[nH]ccc3n12 [AC.1.22]
COc1ncc(-c2nc(C)n3c2cnc2[nH]ccc23)cn1 [AC.1.23]
COc1cccc(-c2nc(C3CCCCC3)n3c2cnc2[nH]ccc23)c1 [AC.3.1]
Fc1ccc(-c2nc(C3CCCCC3)n3c2cnc2[nH]ccc23)cc1 [AC.3.2]
c1cnc(-c2nc(C3CCCCC3)n3c2cnc2[nH]ccc23)cn1 [AC.3.16]

pIC50, 6.00 to 7.00:
Cc1nc(-c2ccc(CO)nc2)c2cnc3[nH]ccc3n12 [AC.1.3]
CCCNC(=O)c1cccc(-c2nc(C)n3c2cnc2[nH]ccc23)c1 [AC.1.4]
Cc1nc(-c2ccc(S(C)(=O)=O)cc2)c2cnc3[nH]ccc3n12 [AC.1.6]
Cc1nc(-c2ccc(S(=O)(=O)N(C)C)cc2)c2cnc3[nH]ccc3n12 [AC.1.10]
Cc1nc(-c2ccc(S(=O)(=O)C(C)C)cc2)c2cnc3[nH]ccc3n12 [AC.1.11]
COCCOc1ccc(-c2nc(C)n3c2cnc2[nH]ccc23)cc1 [AC.1.15]
Cc1nc(-c2ccc(OCC(=O)O)cc2)c2cnc3[nH]ccc3n12 [AC.1.16]
COc1ccc(-c2nc(C)n3c2cnc2[nH]ccc23)cn1 [AC.1.21]
Cc1nc(-c2ccc(C(C)(C)O)nc2)c2cnc3[nH]ccc3n12 [AC.1.24]
Cc1nc(-c2ccc3c(c2)CCO3)c2cnc3[nH]ccc3n12 [AC.1.26]
Cc1nc(-c2cnn(CC(C)(C)O)c2)c2cnc3[nH]ccc3n12 [AC.1.28]
CC(=O)c1ccc(-c2nc(C)n3c2cnc2[nH]ccc23)s1 [AC.1.32]
Cc1nc(-c2ccc(C3(O)COC3)cc2)c2cnc3[nH]ccc3n12 [AC.1.33]
Cc1nc(-c2ccc(CO)cc2)c2cnc3[nH]ccc3n12 [AC.1.34]
Cc1nc(-c2ccc(CC(C)(C)O)cc2)c2cnc3[nH]ccc3n12 [AC.1.35]
Cc1nc(-c2ccc(C3(CO)CC3)cc2)c2cnc3[nH]ccc3n12 [AC.1.36]
COc1ccc(-c2nc(C)n3c2cnc2[nH]ccc23)cc1C [AC.1.37]
Cc1nc(-c2ccc(CNS(=O)(=O)C3CC3)cc2)c2cnc3[nH]ccc3n12 [AC.1.38]
Cc1nc(-c2cccc(S(C)(=O)=O)c2)c2cnc3[nH]ccc3n12 [AC.1.39]
Cc1nc(-c2ccc(S(=O)(=O)NC3CC3)cc2)c2cnc3[nH]ccc3n12 [AC.1.40]
COc1ccc(-c2nc(C)n3c2cnc2[nH]ccc23)cc1Cl [AC.1.42]
CC(=O)Nc1cccc(-c2nc(C3CCCCC3)n3c2cnc2[nH]ccc23)c1 [AC.3.3]
CC(=O)c1cccc(-c2nc(C3CCCCC3)n3c2cnc2[nH]ccc23)c1 [AC.3.4]
CC(=O)Nc1ccc(-c2nc(C3CCCCC3)n3c2cnc2[nH]ccc23)cc1 [AC.3.7]
Cn1ccc2cc(-c3nc(C4CCCCC4)n4c3cnc3[nH]ccc34)ccc21 [AC.3.8]
CN1CCN(Cc2ccc(-c3nc(C4CCCCC4)n4c3cnc3[nH]ccc34)cc2)CC1 [AC.3.14]
NS(=O)(=O)c1ccc(-c2nc(C3CCCCC3)n3c2cnc2[nH]ccc23)cc1 [AC.3.15]
COCCNC(=O)c1ccc(-c2nc(C3CCCCC3)n3c2cnc2[nH]ccc23)cc1 [AC.3.17]
CS(=O)(=O)NCc1ccc(-c2nc(C3CCCCC3)n3c2cnc2[nH]ccc23)cc1 [AC.3.18]
CC(=O)NCCc1ccc(-c2nc(C3CCCCC3)n3c2cnc2[nH]ccc23)cc1 [AC.3.19]
O=S(=O)(NCCO)c1cccc(-c2nc(C3CCCCC3)n3c2cnc2[nH]ccc23)c1 [AC.3.21]
CN(C)C(=O)c1ccc(-c2nc(C3CCCCC3)n3c2cnc2[nH]ccc23)cc1 [AC.3.22]
c1cc(-c2nc(C3CCCCC3)n3c2cnc2[nH]ccc23)ccn1 [AC.3.23]
CN(C)CCNC(=O)c1ccc(-c2nc(C3CCCCC3)n3c2cnc2[nH]ccc23)cc1 [AC.3.26]
O=C(c1ccc(-c2nc(C3CCCCC3)n3c2cnc2[nH]ccc23)cc1)N1CCOCC1 [AC.3.28]
CN(C)S(=O)(=O)c1ccc(-c2nc(C3CCCCC3)n3c2cnc2[nH]ccc23)cc1 [AC.3.29]
CC(C)S(=O)(=O)c1ccc(-c2nc(C3CCCCC3)n3c2cnc2[nH]ccc23)cc1 [AC.3.30]
Cc1ccc(-c2nc(C3CCCCC3)n3c2cnc2[nH]ccc23)cc1 [AC.3.32]
OCc1ccc(-c2ncn3c2cnc2[nH]ccc23)cc1 [AC.4.2]
COc1cc(-c2ncn3c2cnc2[nH]ccc23)ccn1 [AC.4.3]
CC(=O)c1cc(-c2ncn3c2cnc2[nH]ccc23)ccn1 [AC.4.4]
Cc1cc(-c2ncn3c2cnc2[nH]ccc23)ccn1 [AC.4.5]

pIC50, > 7.00:
Cc1nc(-c2ccc(C(C)(C)CO)cc2)c2cnc3[nH]ccc3n12 [AC.1.7]
CNS(=O)(=O)c1ccc(-c2nc(C)n3c2cnc2[nH]ccc23)cc1 [AC.1.9]
Cc1nc(-c2ccc(OCCN3CCOCC3)cc2)c2cnc3[nH]ccc3n12 [AC.1.14]
Cc1nc(-c2ccc(C(C)(C)O)c(F)c2)c2cnc3[nH]ccc3n12 [AC.1.20]
COc1c(C)cc(-c2nc(C)n3c2cnc2[nH]ccc23)cc1C [AC.1.25]
Cc1cc(-c2nc(C)n3c2cnc2[nH]ccc23)ccc1N1CCOCC1 [AC.1.27]
CCCNC(=O)c1ccc(-c2nc(C)n3c2cnc2[nH]ccc23)cc1 [AC.1.29]
Cc1cc(-c2nc(C)n3c2cnc2[nH]ccc23)ccc1N1CCN(C)CC1 [AC.1.30]
COc1ccc(-c2nc(C)n3c2cnc2[nH]ccc23)s1 [AC.1.31]
COc1ccc(-c2nc(C)n3c2cnc2[nH]ccc23)cc1OC [AC.1.41]
COc1cc2c(-c3cc4c(ncc5cnn(C)c54)[nH]3)cn(C)c2cn1 [AC.2.1]
COc1cnc2c(c1)c(-c1cc3c(ncc4cnn(C)c43)[nH]1)cn2C [AC.2.2]
CC(C)(CO)c1ccc(-c2ncn3c2cnc2[nH]ccc23)cc1 [AC.4.1]
CC(C)(O)c1ccc(-c2ncn3c2cnc2[nH]ccc23)cc1F [AC.4.6]

pIC50, < 5.00:
Cc1nc(-c2cccc3nccnc23)c2cnc3[nH]ccc3n12 [AC.1.5]
COc1ccc(-c2nc(C)n3c2cnc2[nH]ccc23)c(C)c1 [AC.1.17]

Same assay, conditions: Syk catalytic domain (aa 356-635), trFRET, 0.001 mM ATP

pIC50, 5.00 to 6.00:
CC(=O)N[C@@H]1C[C@@H](c2nc(-c3ccc(C(C)(C)O)cc3)c3cnc4[nH]ccc4n23)N(S(=O)(=O)C2CC2)C1 (racemic) [N.1.65]

pIC50, > 7.00:
COc1ccc2c(c1)c(-c1cc3c(ncc4cnc([C@@H]5CC[C@H](N)C5)n43)[nH]1)cn2C (relative stereo) [T.1.1, cis-3-(7-(5-Methoxy-1-methyl-1H-indol-3-yl)-6H-imidazo[1,5-a]pyrrolo[2,3-e]pyrazin-1-yl)cyclopentanamine diacetate]

pIC50, 6.00 to 7.00:
CC(C)(O)c1ccc(-c2nc([C@@H]3CCCC[C@H]3CN)n3c2cnc2[nH]ccc23)cc1 (racemic) [N.1.78]
CS(=O)(=O)c1cccc(-c2cc3c(ncc4cnc([C@@H]5CC[C@H](N)C5)n43)[nH]2)c1 (relative stereo) [T.1.1.5, (cis)-3-(7-(3-(Methylsulfonyl)phenyl)-6H-imidazo[1,5-a]pyrrolo[2,3-e]pyrazin-1-yl)cyclopentanamine]
